Experimental data reported in the supplement of paper PMC7661543.
± gives the standard deviation of the averaged measurements.

Key:
Assay in all cases: relative cell number vs DMSO control (72 h) (% of DMSO); higher = less growth inhibition (more cells)
Conditions in all cases: sgRNA knockout: sgNT
BT-20 = system: BT-20
Protocol: (§1)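 QMAP-Seq: a pool of 5 breast cancer cell lines (ZR-75-1, SKBR3, HCC-38, MDA-MB-231, BT-20), each carrying 12 doxycycline-inducible Cas9 sgRNA perturbations (11 knockouts plus non-targeting sgNT), was treated with compounds for 72 h at four 10-fold doses (10 nM-10 uM or 1 nM-1 uM range). Barcodes were amplified and sequenced, and cell number was interpolated from 293T spike-in standard curves. The result is expressed as % of the median of DMSO wells. Two biological replicates.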

HCC-38 = system: HCC-38
Protocol: as §1

MDA-MB-231 = system: MDA-MB-231
Protocol: as §1

SKBR3 = system: SKBR3
Protocol: as §1

ZR-75-1 = system: ZR-75-1
Protocol: as §1

Structure (SMILES) | relative cell number (BT-20; 10 nM) | relative cell number (BT-20; 100 nM) | relative cell number (BT-20; 1000 nM) | relative cell number (BT-20; 10000 nM) | relative cell number (HCC-38; 10 nM) | relative cell number (HCC-38; 100 nM) | relative cell number (HCC-38; 1000 nM) | relative cell number (HCC-38; 10000 nM) | relative cell number (MDA-MB-231; 10 nM) | relative cell number (MDA-MB-231; 100 nM) | relative cell number (MDA-MB-231; 1000 nM) | relative cell number (MDA-MB-231; 10000 nM) | relative cell number (SKBR3; 10 nM) | relative cell number (SKBR3; 100 nM) | relative cell number (SKBR3; 1000 nM) | relative cell number (SKBR3; 10000 nM) | relative cell number (ZR-75-1; 10 nM) | relative cell number (ZR-75-1; 100 nM) | relative cell number (ZR-75-1; 1000 nM) | relative cell number (ZR-75-1; 10000 nM) | relative cell number (BT-20; 1 nM) | relative cell number (HCC-38; 1 nM) | relative cell number (MDA-MB-231; 1 nM) | relative cell number (SKBR3; 1 nM) | relative cell number (ZR-75-1; 1 nM)
CN(C)C(=O)c1ccc(S(=O)(=O)c2ccc(NC(=O)[C@@](C)(O)C(F)(F)F)c(Cl)c2)cc1 [AZD7545] | 91.2 ± 24 | 103 ± 25 | 102 ± 22 | 95.7 ± 8.7 | 105 ± 6.3 | 90 ± 14 | 97.8 ± 1.1 | 82.9 ± 1.9 | 103 ± 17 | 121 ± 14 | 104 ± 39 | 89.5 ± 47 | 97.6 ± 9.6 | 103 ± 18 | 95.8 ± 11 | 70.3 ± 10 | 110 ± 7.3 | 116 ± 53 | 91.8 ± 25 | 42.7 ± 5.5 |  |  |  |  | 
C[C@@H](Nc1cc(F)cc(F)c1)c1cc(C(=O)N(C)C)cc2c(=O)cc(N3CCOCC3)oc12 [AZD8186] | 103 ± 9.9 | 117 ± 3.5 | 107 ± 23 | 98.3 ± 1.2 | 97.9 ± 24 | 105 ± 19 | 86.8 ± 7.5 | 79.5 ± 7.5 | 109 ± 3.1 | 134 ± 21 | 130 ± 80 | 83.4 ± 28 | 88.2 ± 0.97 | 103 ± 18 | 94.2 ± 6.8 | 59.6 ± 10 | 91.2 ± 19 | 103 ± 1.3 | 66.4 ± 4 | 49.1 ± 22 |  |  |  |  | 
C[C@]12CC[C@H](O)CC1=CC[C@@H]1[C@@H]2CC[C@]2(C)C(c3cccnc3)=CC[C@@H]12 [Abiraterone] | 115 ± 6.5 | 118 ± 20 | 116 ± 3.4 |  | 107 ± 4.5 | 104 ± 5.2 | 116 ± 16 |  | 115 ± 3.5 | 99.4 ± 5.8 | 153 ± 19 |  | 118 ± 15 | 114 ± 42 | 114 ± 10 |  | 115 ± 34 | 105 ± 18 | 90.5 ± 55 |  | 109 ± 10 | 109 ± 2.1 | 127 ± 2.9 | 139 ± 37 | 101 ± 16
CN(C)C/C=C/C(=O)Nc1cc2c(Nc3ccc(F)c(Cl)c3)ncnc2cc1O[C@H]1CCOC1 [Afatinib] | 117 ± 13 | 66.9 ± 10 | 82.8 ± 8.8 | 20.2 ± 4.5 | 94.6 ± 18 | 101 ± 22 | 75.7 ± 7.1 | 21.2 ± 1.6 | 151 ± 15 | 77.1 ± 36 | 93.9 ± 5.5 | 15.6 ± 3.4 | 85.2 ± 6.7 | 34.5 ± 13 | 18.7 ± 0.37 | 10.8 ± 1.1 | 103 ± 7.7 | 72.2 ± 40 | 68.8 ± 6.8 | 13 ± 0.97 |  |  |  |  | 
COc1cc(Nc2ncc3c(n2)-c2ccc(Cl)cc2C(c2c(F)cccc2OC)=NC3)ccc1C(=O)O [Alisertib] | 92.5 ± 23 | 66.5 ± 8 | 77.8 ± 24 | 68.3 ± 5.7 | 99.89 ± 0.26 | 53.9 ± 1 | 57.4 ± 9.7 | 48.4 ± 1.9 | 112 ± 7.3 | 50.3 ± 15 | 59.5 ± 1.8 | 49.3 ± 8.4 | 121 ± 14 | 80.8 ± 8.3 | 77.2 ± 11 | 91.2 ± 9.5 | 82.4 ± 36 | 39.4 ± 3.1 | 42 ± 10 | 35.2 ± 1.5 |  |  |  |  | 
CC(C)(C#N)c1cc(Cn2cncn2)cc(C(C)(C)C#N)c1 [Anastrozole] | 103 ± 50 | 116 ± 12 | 114 ± 15 |  | 116 ± 3.1 | 103 ± 5.8 | 115.2 ± 0.88 |  | 110 ± 75 | 121 ± 17 | 115 ± 22 |  | 90.3 ± 18 | 118 ± 17 | 103 ± 13 |  | 151 ± 25 | 100 ± 3.4 | 120 ± 17 |  | 112 ± 1.8 | 106 ± 9.5 | 107 ± 8.8 | 123 ± 23 | 76.6 ± 1.4
CCN1CCN(c2ccc(Nc3cc(N(C)C(=O)Nc4c(Cl)c(OC)cc(OC)c4Cl)ncn3)cc2)CC1 [BGJ398] | 80.6 ± 10 | 104 ± 1.5 | 88.5 ± 15 | 82.8 ± 18 | 93.6 ± 16 | 66.73 ± 0.28 | 60.5 ± 4.7 | 58.5 ± 0.79 | 81.7 ± 12 | 83.1 ± 16 | 116 ± 2.1 | 65.2 ± 12 | 99.1 ± 6.7 | 106 ± 32 | 67.6 ± 6.6 | 75 ± 18 | 77.02 ± 0.32 | 116 ± 13 | 105 ± 14 | 78.1 ± 26 |  |  |  |  | 
COC(=O)[C@]12CCC(C)(C)C[C@H]1[C@H]1C(=O)C=C3[C@@]4(C)C=C(C#N)C(=O)C(C)(C)[C@@H]4CC[C@@]3(C)[C@]1(C)CC2 [BardoxoloneMethyl] | 73.5 ± 19 | 66.2 ± 6.3 | 16.2 ± 4 | 4.97 ± 2.9 | 96 ± 7.2 | 99.93 ± 0.61 | 26.6 ± 3.4 | 5.24 ± 0.59 | 109 ± 22 | 66.5 ± 37 | 16.4 ± 11 | 5.3 ± 1.9 | 100.4 ± 0.77 | 66.6 ± 13 | 7.42 ± 0.66 | 4.14 ± 0.45 | 74.7 ± 11 | 49.3 ± 14 | 14.3 ± 2.1 | 5.42 ± 4.3 |  |  |  |  | 
Cn1c(CCCC(=O)O)nc2cc(N(CCCl)CCCl)ccc21 [Bendamustine] | 90.6 ± 14 | 114 ± 25 | 112 ± 33 | 124 ± 14 | 104 ± 6 | 103 ± 1.1 | 109 ± 17 | 115 ± 4.3 | 111 ± 13 | 123 ± 10 | 95.8 ± 17 | 127 ± 3.8 | 86.7 ± 9.2 | 115 ± 21 | 118 ± 21 | 109 ± 44 | 82.4 ± 11 | 123 ± 6.9 | 63.7 ± 27 | 97.9 ± 9.2 |  |  |  |  | 
C=C(C)[C@@H]1CC[C@]2(C(=O)O)CC[C@]3(C)[C@H](CC[C@@H]4[C@@]5(C)CC[C@H](O)C(C)(C)[C@@H]5CC[C@]43C)[C@@H]12 [BetulinicAcid] | 86.7 ± 12 | 78.6 ± 3.6 | 86.4 ± 13 | 108 ± 1.7 | 106 ± 10 | 82.2 ± 9.4 | 98 ± 32 | 96.4 ± 1.5 | 74.3 ± 2.1 | 92.9 ± 11 | 69.8 ± 21 | 117 ± 24 | 76.3 ± 23 | 95 ± 13 | 86 ± 5.5 | 96.4 ± 11 | 90.9 ± 11 | 97.1 ± 4.8 | 94.5 ± 43 | 110 ± 11 |  |  |  |  | 
C=C(c1ccc(C(=O)O)cc1)c1cc2c(cc1C)C(C)(C)CCC2(C)C [Bexarotene] | 122 ± 11 | 119 ± 25 | 112 ± 33 | 137 ± 30 | 85.51 ± 0.16 | 90.4 ± 9 | 94.9 ± 8 | 108 ± 8.4 | 146 ± 83 | 73.6 ± 3.8 | 95.3 ± 16 | 80.2 ± 31 | 107 ± 4.7 | 72.8 ± 16 | 71.6 ± 34 | 90 ± 11 | 97.6 ± 34 | 78.4 ± 27 | 72.2 ± 19 | 70.3 ± 5.1 |  |  |  |  | 
Cc1ccc2c(c1)C(=O)C1(O)CCN(c3ccccc3)C1=N2 (stereo not given) [Blebbistatin] | 115.9 ± 0.31 | 128 ± 6.2 | 130 ± 4 | 125 ± 46 | 125 ± 10 | 118 ± 4.2 | 115 ± 13 | 69.5 ± 7.5 | 110 ± 16 | 138.4 ± 0.51 | 144 ± 49 | 97 ± 12 | 114 ± 20 | 111 ± 16 | 126 ± 11 | 96.52 ± 0.14 | 108 ± 9.9 | 112 ± 9.8 | 98.1 ± 39 | 84.1 ± 7.3 |  |  |  |  | 
